From ChEMBL document CHEMBL4673332, “Neuroprotective and Anti-inflammatory Ditetrahydrofuran-Containing Diarylheptanoids from Tacca chantrieri” (J Nat Prod, 2020)

Assays:
[1] = test system: BV-2; test: Antiinflammatory activity against LPS-induced mouse BV-2 cells assessed NO production at 10 uM preincubated for 2 hrs followed by LPS-stimulation and measured after 24 hrs by Greiss reagent based assay relative to control; format: functional; conditions: time 26 hrs
[2] = test system: SH-SY5Y; test: Cytotoxicity against human SH-SY5Y cells assessed as reduction cell viability at 1 to 10 uM after 24 hrs by MTT assay; format: cell-based; conditions: dose 1-10 µM
[3] = test system: SH-SY5Y; test: Neuroprotective activity in human SH-SY5Y cells assessed as reduction in amyloid beta (25 to 35)-induced cytotoxicity by measuring cell viability at 10 uM after 24 hrs by MTT assay relative to control; format: functional
[4] = test system: BV-2; test: Cytotoxicity against mouse BV-2 cells assessed as reduction cell viability at 10 uM after 24 hrs by MTT assay; format: cell-based; conditions: bv-2, 24 h
[5] = test system: BV-2; test: Antiinflammatory activity against LPS-induced mouse BV-2 cells assessed NO production at 1 uM preincubated for 2 hrs followed by LPS-stimulation and measured after 24 hrs by Greiss reagent based assay relative to control; format: functional; conditions: time 26 hrs
[6] = test system: SH-SY5Y; test: Neuroprotective activity in human SH-SY5Y cells assessed as reduction in amyloid beta (25 to 35)-induced cytotoxicity by measuring cell viability at 1 uM after 24 hrs by MTT assay relative to control; format: functional
[7] = Cytotoxicity against mouse BV-2 cells assessed as cell viability at 10 uM after 24 hrs by MTT assay relative to control; format: cell-based; conditions: read-out: Activity

Structure (SMILES): COc1cc(/C=C/C=C/C(=O)CCc2ccc(O)cc2)cc(OC)c1O
- Activity [1]: 77.4%
- Activity [2]: Non-Toxic
- Activity [3]: 81.3%
- Activity [4]: Non-Toxic
- Activity [5]: 96.8%
- Activity [6]: 66.1%

Structure (SMILES): O=C(CCc1ccc(O)cc1)C[C@@H]1O[C@@H](c2ccc(O)cc2)[C@H]2[C@@H]1[C@H](c1ccc(O)cc1)O[C@H]2CC(=O)CCc1ccc(O)cc1
- viability at 24 h, 10 µM [7]: < 70%
- Activity [1]: 87.8%
- Activity [3]: 70.9%
- Activity [5]: 100.9%
- Activity [6]: 70.7%

Structure (SMILES): O=C(O[C@@H]1Cc2c(O)cc(O)cc2O[C@@H]1c1cc(O)c(O)c(O)c1)c1cc(O)c(O)c(O)c1 [EPIGALOCATECHIN GALLATE]
- Activity [3]: 80.8%

Structure (SMILES): COc1cc([C@@H]2O[C@@H](CC(=O)CCc3ccc(O)cc3)[C@@H]3[C@H]2[C@H](CC(=O)CCc2ccc(O)cc2)O[C@H]3c2ccc(O)cc2)ccc1O
- Activity [1]: 86.8%
- Activity [2]: Non-Toxic
- Activity [3]: 91.9%
- Activity [4]: Non-Toxic
- Activity [5]: 99.6%
- Activity [6]: 69.6%

Structure (SMILES): Oc1ccc2cc1Oc1ccc(cc1)CC[C@H](O)C[C@@H](O)CC2 (relative stereo)
- Activity [1]: 84.6%
- Activity [4]: Non-Toxic
- Activity [5]: 98.8%

Structure (SMILES): COc1cc([C@@H]2O[C@@H](CC(=O)CCc3ccc(O)cc3)[C@@H]3[C@H]2[C@H](CC(=O)CCc2ccc(O)cc2)O[C@H]3c2ccc(O)c(OC)c2)ccc1O
- viability at 24 h, 10 µM [7]: < 70%
- Activity [1]: 85%
- Activity [2]: Non-Toxic
- Activity [3]: 76.3%
- Activity [5]: 101.4%
- Activity [6]: 69%

Structure (SMILES): COc1cc(CC[C@@H](O)C[C@H](O)CCc2ccc(O)c(OC)c2)ccc1O
- Activity [1]: 84.3%
- Activity [4]: Non-Toxic
- Activity [5]: 101.2%

Structure (SMILES): Oc1ccc(/C=C/c2cc(O)cc(O)c2)cc1 [RESVERATROL]
- Activity [5]: 67.5%

Structure (SMILES): Oc1ccc(CC[C@@H](O)C[C@H](O)CCc2ccc(O)cc2)cc1 [(+)-HANNOKINOL]
- Activity [1]: 94.8%
- Activity [4]: Non-Toxic
- Activity [5]: 101.9%

Structure (SMILES): COc1cc(CC[C@@H](O)C[C@H](O)CCc2ccc(O)cc2)ccc1O
- Activity [1]: 85.7%
- Activity [4]: Non-Toxic
- Activity [5]: 99.4%
